Assays:
[1] = Degree of polymerization of PAC by titration; type: physicochemical; conditions: native sucralfate
Procedure: Experiments were performed to determine the degree of polymerization in AF-LuCI by using the titration-based methods as described in Nail, S. L., White, J. L. & Hem, S. L. Structure of Aluminum Hydroxide Gel I. Initial Precipitate. Journal of Pharmaceutical Sciences 65, 1188-1191 (1976); and Hem, J. D. & Roberson, C. E. Form and stability of aluminum hydroxide complexes in dilute solution. Geol Surv Water-Supply Pap (US); (United States) (1967). The degree of polymerization of PACs in AF-LuCI and sucralfate molecule was determined using titration method based on the reversible protonation of hydroxo linkages in the PAC backbone. Approximately 10 mg of AF-LuCI were treated with 0.1N, 0.2N, 0.3N, 0.4N and 0.5N HCl solutions in different tubes. The samples were vortexed for 5 seconds followed by 1-hour incubation. The supernatant of each sample was then collected and the pH was measured using a pH meter. The same procedures were performed with sucralfate. The pH of the HCl solutions was measured as the control group and the difference between the control and the treated groups was calculated. The difference in pH corresponds to the proton consumption and the amount of hydroxo linkages that were then used to calculate the number of aluminum per molecule.

[2] = tested on: Sprague-Dawley (SD) rats; experiment: microCT imaging of coating in the GI tract; type: in vivo, rat; conditions: gavaged to SD rats
Procedure: Sprague-Dawley (SD) rats were gavaged into the stomach with hydrated AF-LuCI pastes and imaged using micro-computed tomography (microCT). AF-LuCI pastes could be visualized on gastro-intestinal tissues without additional contrast agents owing to the presence of aluminum. For these experiments, rats were fasted overnight and gavaged directly into the stomach with 450 mg/kg rat of AF-LuCI paste hydrated in 0.9 w/v % normal saline solution. After 1 hr and 5 hr, the rats were anesthetized using isoflurane and imaged using microCT. […] FIG. 18A is a coronal plane view of SD rats gavaged with AF-LuCI 1 hr before the imaging. AF-LuCI formed a layer in stomach, duodenum and proximal intestine. FIGS. 18B and 18C are 3-dimentional views of SD rats gavaged with AF-LuCI (FIG. 18B) 1 hr and (FIG. 18C) 5 hr before the microCT imaging. AF-LuCI is attached on stomach, duodenum and proximal intestine at least for 5 hrs after gavage while sucralfate only formed sparsely scattered aggregates on the healthy mucosa

[3] = Integrative barrier property test, glucose permeation in Franz-cell system
Procedure: To examine the barrier properties of pastes formed from the new hydratable compositions in vitro, a mucin-coated membrane was prepared to mimic the mucus surface of the intestine. Specifically, a cellulose nitrate membrane (pore size: 0.2 μm, Whatman, Germany) was incubated in a 3% w/v porcine stomach mucin (Sigma Aldrich, USA) solution in PBS (pH 7.4) and gently shaken for 2 hours at room temperature. The membrane was washed with distilled deionized water (DDW, pH 5.5) to remove the excess mucin solution. The mucin-coated membranes were used within 1 hour following preparation.
To measure the thickness of the mucin layer, the mucin-coated membrane was lyophilized and imaged using scanning electron microscope (SEM) and the thickness of randomly selected positions was examined (average mucin layer thickness: ~100 μm). To test the nutrient barrier properties, 10 mg of sucralfate or AF-LuCI was added evenly to a mucin-coated membrane and vertically tilted for 1 minute. […]
The permeation tests were performed in triplicate for each material. The glucose concentration was measured using high performance liquid chromatography (HPLC, Agilent, USA) with an analytical C18 column (Zorbax Eclipse XDB-C18, Agilent). […]

[4] = Film thickness of hydrated paste on mucus-coated cellulose nitrate membrane; type: physicochemical
Procedure: Five hundred milligrams of AF-LuCI (excess) was added onto mucus-coated cellulose nitrate membrane (disk shape with 2 cm diameter) and DDW (pH 5.5), SGF (pH 1.0), or SIF (pH 6.5) was added immediately. After AF-LuCI becomes a paste and flow to form a layer (3-5 minutes), supernatant was removed and the paste-coated membrane was quickly frozen in −80° C. freezer to measure the thickness. The thickness of the mucus-coated cellulose nitrate membrane without AF-LuCI was separately measured as a baseline.

[5] = tested on: SD rats; experiment: OGTT with different viscosity, dose and dosing schedule (Example 12); type: in vivo, rat; conditions: normal SD rats
Procedure: Experiments were then performed to assess if the AF-LuCI coating could lower glucose response. To evaluate the in vivo effect of the barrier coating from AF-LuCI on postprandial glucose response, SD rats were pre-gavaged with the AF-LuCI pastes and standard OGTT was performed. AF-LuCI at different dosage but also different viscosity. It was hypothesized that low viscosity product may lead to barrier formation in larger area and earlier duodenal coating (onset of action). For these studies, rats were fasted overnight and gavaged with AF-LuCI pastes (dose: 450-2,700 mg/kg rat; viscosity: high and low), or saline as a control. One or three hours later, glucose solution (2 g/kg rat) was gavaged and changes in serum glucose levels measured every 30 minutes over the subsequent 120 min (n=4 per arm). Tail vein blood was used to measure glucose levels using glucometer. […] The time gap between AF-LuCI administration and glucose gavage also affects the reduction of blood glucose responses differently depending on the AF-LuCI formulations (FIG. 19C). 3 hr after treatment with 450 mg/kg rat lower viscosity AF-LuCI (i.e. 5 Pa·s), the reduction in glucose response decreased to 7%. In FIG. 19, AF-LuCI fabricated using 0.4N, 0.5N, and 0.6N HCl solution and rehydrated in 0.9 w/v % normal saline is denoted as “Viscosity High”, “Viscosity Mid”, and “Viscosity Low”, respectively.

[6] = Dissolution in NaCl solutions; type: physicochemical; conditions: saturated NaCl solutions (~0.35 g/ml in water)
Source text: […] This is a characteristic behavior of liquid complex coacervate system (See Wang, Q. & Schlenoff, J. B. The Polyelectrolyte Complex/Coacervate Continuum. Macromolecules 47, 3108-3116 (2014); de Kruif, C. G., Weinbreck, F. & de Vries, R. Complex coacervation of proteins and anionic polysaccharides. Current Opinion in Colloid & Interface Science 9, 340-349 (2004); Veis, A. & Aranyi, C. PHASE SEPARATION IN POLYELECTROLYTE SYSTEMS. I. COMPLEX COACERVATES OF GELATIN. J. Phys. Chem. 64, 1203-1210 (1960)).

[7] = Aluminum release in simulated GI fluids; type: physicochemical; conditions: simulated gastric fluid (SGF, pH 1.0)
[8] = cited from earlier work

number of aluminum ions per molecule [1]: 56.1±3.0 aluminum per molecule
layer formation in the GI tract (microCT) [2]: did not form a layer
layer formation ([4]; distilled water or SIF): did not form any layer
thickness of layer ([4]; only in SGF (pH 1.0)): ~ 250 μm
amount dissolved [6]: Less than 5 w/w %
release of aluminum [7]: 15 w/w % of total aluminum content
Substance: sucralfate
glucose penetration blocked ([3]; SGF, 10 mg on mucin-coated membrane, 120 g/L glucose, 5 minutes): ~ 60%
glucose blocked ([3]; applied on mucus-coated membrane in pH 1.0, then pH 4.0): 16.5%
area under curve (AUC) in OGTT vs saline treated group [5]: no significant difference
aluminum content of sucralfate (USP regulation) [8]: 15.5-18.5 w/w % of the total weight
